Data published in publication PMC4503722, “Novel Phenotypic Outcomes Identified for a Public Collection of Approved Drugs from a Publicly Accessible Panel of Assays” (PLoS ONE, 2015).
Where two headings read alike, the source gives them in different places.

What was measured:
SW480 = assay: cells; assay type: cell-based; conditions: for IC50: read-out: Basal_Viability ATP SW480 summarized IC50
HCT116 = assay: cells; assay type: cell-based; conditions: for IC50: read-out: Basal_Viability ATP HCT116 summarized IC50
SNU-C1 = assay: cells; assay type: cell-based; conditions: for IC50: read-out: Basal_Viability ATP SNU-C1 summarized IC50
[1] = tested on: endothelial tube formation in co-cultures of ECFCs and ADSCs treated with VEGF; assay: cells; assay type: cell-based, human; conditions: for IC50: read-out: VEGF_ADSC\ECFC Angio CD31 TubeArea summarized IC50
RKO = assay: cells; assay type: cell-based; conditions: for IC50: read-out: Basal_Viability ATP RKO summarized IC50
[2] = tested on: ECFC/ADSC co-culture cell nuclei number; conditions: for IC50: read-out: VEGF_ADSC\ECFC Angio Hoechst NucArea summarized IC50
DLD-1 = assay: cells; assay type: cell-based; conditions: for IC50: read-out: Basal_Viability ATP DLD-1 summarized IC50
Colo320 = assay: cells; assay type: cell-based; conditions: for IC50: read-out: Basal_Viability ATP Colo 320 summarized IC50
HT-29 = assay: cells; assay type: cell-based; conditions: for IC50: read-out: Basal_Viability ATP HT-29 summarized IC50
[3] = tested on: HCT116 cells treated with a GSK3β inhibitor; assay: cells; assay type: cell-based; conditions: for IC50: read-out: GSK3b inh pretreated_Viability ATP HCT116 summarized IC50
[4] = assay number 26, GSK3b inhibitor pretreated
[5] = assay number 24, concentration response
[6] = assay number 25, basal, concentration response
[7] = assay number 30, concentration response
[8] = assay number 29, concentration response
[9] = assay number 23, concentration response
[10] = assay number 27, concentration response
[11] = assay number 28, concentration response
[12] = assay number 26, GSK3b inhibitor pretreated, concentration response

Compound: CC/C=C\C/C=C\C/C=C\CCCCCCCC(=O)O [NCGC00091058-11]
- IC50/EC50, Basal_Viability ATP SW480 (assay number 24) (SW480; basal): > 20 µM
- IC50/EC50, Basal_Viability ATP HCT116 (assay number 25) (HCT116; basal): > 20 µM
- IC50/EC50, Basal_Viability ATP SNU-C1 (assay number 30) (SNU-C1; basal): > 20 µM
- IC50/EC50, VEGF_ADSC\ECFC Angio CD31 TubeArea (assay number 2) [1]: > 10 µM
- IC50/EC50, Basal_Viability ATP RKO (assay number 29) (RKO; basal): > 20 µM
- IC50/EC50, VEGF_ADSC\ECFC Angio Hoechst NucArea (assay number 3) [2]: > 10 µM
- IC50/EC50, Basal_Viability ATP DLD-1 (assay number 23) (DLD-1; basal): > 20 µM
- IC50/EC50, Basal_Viability ATP Colo 320 (assay number 27) (Colo320; basal): > 20 µM
- IC50/EC50, Basal_Viability ATP HT-29 (assay number 28) (HT-29; basal): > 20 µM
- IC50/EC50, GSK3b inh pretreated_Viability ATP HCT116 (assay number 26) ([3]; GSK3b inh pretreated): > 20 µM

Compound: CCCCCCCC(=O)OCC(COC(=O)CCCCCCC)OC(=O)CCCCCCC [NCGC00091285-03]
- Basal_Viability ATP SW480 IC50/EC50 (SW480; assay number 24, basal): > 20 µM
- Basal_Viability ATP HCT116 IC50/EC50 (HCT116; assay number 25, basal): > 20 µM
- Basal_Viability ATP SNU-C1 IC50/EC50 (SNU-C1; assay number 30, basal): > 20 µM
- VEGF_ADSC\ECFC Angio CD31 TubeArea IC50/EC50 [1]: > 10 µM
- Basal_Viability ATP RKO IC50/EC50 (RKO; assay number 29, basal): > 20 µM
- VEGF_ADSC\ECFC Angio Hoechst NucArea IC50/EC50 [2]: > 10 µM
- Basal_Viability ATP DLD-1 IC50/EC50 (DLD-1; assay number 23, basal): > 20 µM
- Basal_Viability ATP Colo 320 IC50/EC50 (Colo320; assay number 27, basal): > 20 µM
- Basal_Viability ATP HT-29 IC50/EC50 (HT-29; assay number 28, basal): > 20 µM
- GSK3b inh pretreated_Viability ATP HCT116 IC50/EC50 [3, 4]: > 20 µM

Compound: O=C([O-])CCC(=O)OC[C@@H](NC(=O)C(Cl)Cl)[C@H](O)c1ccc([N+](=O)[O-])cc1.[Na+] [NCGC00094619-06]
- Basal_Viability ATP SW480 IC50/EC50 (SW480; [5]): > 20 µM
- Basal_Viability ATP HCT116 IC50/EC50 (HCT116; [6]): > 20 µM
- Basal_Viability ATP SNU-C1 IC50/EC50 (SNU-C1; [7]): > 20 µM
- VEGF_ADSC\ECFC Angio CD31 TubeArea IC50/EC50 [1]: > 10 µM
- Basal_Viability ATP RKO IC50/EC50 (RKO; [8]): > 20 µM
- VEGF_ADSC\ECFC Angio Hoechst NucArea IC50/EC50 [2]: > 10 µM
- Basal_Viability ATP DLD-1 IC50/EC50 (DLD-1; [9]): > 20 µM
- Basal_Viability ATP Colo 320 IC50/EC50 (Colo320; [10]): > 20 µM
- Basal_Viability ATP HT-29 IC50/EC50 (HT-29; [11]): > 20 µM
- GSK3b inh pretreated_Viability ATP HCT116 IC50/EC50 [3, 12]: > 20 µM

Compound: Oc1c(Br)cc(Br)c2cccnc12 [NCGC00094815-05]
- IC50 (SW480): 0.132 µM
- IC50 (HCT116): 0.193 µM
- IC50 (SNU-C1): 0.366 µM
- IC50 [1]: > 10 µM
- IC50 (RKO): 0.163 µM
- IC50 [2]: > 10 µM
- IC50 (DLD-1): 0.157 µM
- IC50 (Colo320): 0.114 µM
- IC50 (HT-29): 5.25 µM
- IC50 [3]: 0.183 µM

Compound: Nc1c2ccccc2nc2ccccc12 [NCGC00094857-05]
- IC50 (SW480; assay number 24, basal): > 20 µM
- IC50 (HCT116; assay number 25, basal): 2.02 µM
- IC50 (SNU-C1; assay number 30, basal): > 6.67 µM
- IC50 [1]: > 10 µM
- IC50 (RKO; assay number 29, basal): > 6.67 µM
- IC50 [2]: > 10 µM
- IC50 (DLD-1; assay number 23, basal): > 20 µM
- IC50 (Colo320; assay number 27, basal): 8.81 µM
- IC50 (HT-29; assay number 28, basal): > 20 µM
- IC50 [3, 4]: 3.87 µM

Compound: CCCCCCCCCCCCCCCC(=O)OC/C=C(C)/C=C/C=C(C)/C=C/C1=C(C)CCCC1(C)C [NCGC00095056-04]
- IC50 (SW480; assay number 24, basal): > 20 µM
- IC50 (HCT116; assay number 25, basal): > 20 µM
- IC50 (SNU-C1; assay number 30, basal): > 20 µM
- IC50 [1]: > 10 µM
- IC50 (RKO; assay number 29, basal): > 20 µM
- IC50 [2]: > 10 µM
- IC50 (DLD-1; assay number 23, basal): > 20 µM
- IC50 (Colo320; assay number 27, basal): > 20 µM
- IC50 (HT-29; assay number 28, basal): > 20 µM
- IC50 [3, 4]: > 20 µM

Compound: O=C(OCCO)c1ccccc1O [NCGC00159379-04]
- Basal_Viability ATP SW480 IC50/EC50 (SW480; [5]): > 20 µM
- Basal_Viability ATP HCT116 IC50/EC50 (HCT116; [6]): > 20 µM
- Basal_Viability ATP SNU-C1 IC50/EC50 (SNU-C1; [7]): > 20 µM
- VEGF_ADSC\ECFC Angio CD31 TubeArea IC50/EC50 [1]: > 10 µM
- Basal_Viability ATP RKO IC50/EC50 (RKO; [8]): > 20 µM
- VEGF_ADSC\ECFC Angio Hoechst NucArea IC50/EC50 [2]: > 10 µM
- Basal_Viability ATP DLD-1 IC50/EC50 (DLD-1; [9]): > 20 µM
- Basal_Viability ATP Colo 320 IC50/EC50 (Colo320; [10]): > 20 µM
- Basal_Viability ATP HT-29 IC50/EC50 (HT-29; [11]): > 20 µM
- GSK3b inh pretreated_Viability ATP HCT116 IC50/EC50 [3, 12]: > 20 µM
